{"source": "paper PMC8860869", "about": "(Chemical research in toxicology, 2022)", "test_in_all_cases": "cross-linking in cells, immunoblot", "format_in_all_cases": "cell-based", "conditions_in_all_cases": "covalent; living yeast, toxic concentrations", "key": {"Eug1": {"biological_target": "T1, Eug1 (Saccharomyces cerevisiae, UniProt P32474)", "T1 sequence (P32474 30-517)": "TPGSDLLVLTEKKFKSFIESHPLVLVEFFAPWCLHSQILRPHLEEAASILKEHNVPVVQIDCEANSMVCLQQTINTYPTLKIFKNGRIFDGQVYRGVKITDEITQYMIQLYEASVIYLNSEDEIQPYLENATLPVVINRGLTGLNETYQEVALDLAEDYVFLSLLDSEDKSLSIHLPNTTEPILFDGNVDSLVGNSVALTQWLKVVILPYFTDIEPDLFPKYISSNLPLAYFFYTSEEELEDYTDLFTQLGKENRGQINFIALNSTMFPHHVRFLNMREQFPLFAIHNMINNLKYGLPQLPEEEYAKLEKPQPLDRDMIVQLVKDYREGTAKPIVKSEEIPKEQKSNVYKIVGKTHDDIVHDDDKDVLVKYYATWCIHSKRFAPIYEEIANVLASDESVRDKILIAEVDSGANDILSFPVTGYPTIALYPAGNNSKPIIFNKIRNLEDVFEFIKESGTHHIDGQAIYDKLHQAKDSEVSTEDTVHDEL"}, "Pdi1": {"biological_target": "T2, Pdi1 (Saccharomyces cerevisiae, UniProt P17967)", "T2 sequence (P17967 29-522)": "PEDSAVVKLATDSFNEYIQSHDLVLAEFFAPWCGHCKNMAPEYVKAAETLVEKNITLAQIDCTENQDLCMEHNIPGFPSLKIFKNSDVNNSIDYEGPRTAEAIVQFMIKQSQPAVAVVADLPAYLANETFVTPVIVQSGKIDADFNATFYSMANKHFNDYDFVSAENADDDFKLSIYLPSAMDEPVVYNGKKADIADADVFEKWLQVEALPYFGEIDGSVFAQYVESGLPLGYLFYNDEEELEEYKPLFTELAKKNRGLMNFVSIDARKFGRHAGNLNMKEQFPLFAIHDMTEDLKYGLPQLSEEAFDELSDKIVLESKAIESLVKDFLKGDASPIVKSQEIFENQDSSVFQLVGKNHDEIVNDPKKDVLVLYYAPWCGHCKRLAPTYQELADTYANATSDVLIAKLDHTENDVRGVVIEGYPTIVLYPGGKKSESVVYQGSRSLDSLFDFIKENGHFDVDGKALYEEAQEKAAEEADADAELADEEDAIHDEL"}, "Mpd2": {"biological_target": "T3, Mpd2 (Saccharomyces cerevisiae, UniProt Q99316)", "T3 sequence (Q99316 23-277)": "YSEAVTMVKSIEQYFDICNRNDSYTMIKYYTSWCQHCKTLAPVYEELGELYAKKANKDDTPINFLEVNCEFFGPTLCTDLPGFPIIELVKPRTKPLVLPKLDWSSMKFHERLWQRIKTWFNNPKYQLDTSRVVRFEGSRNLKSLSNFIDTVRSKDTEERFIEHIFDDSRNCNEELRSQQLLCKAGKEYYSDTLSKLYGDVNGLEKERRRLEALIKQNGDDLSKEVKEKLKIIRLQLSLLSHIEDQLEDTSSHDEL"}, "Mpd1": {"biological_target": "T4, Mpd1 (Saccharomyces cerevisiae, UniProt Q12404)", "T4 sequence (Q12404 22-318)": "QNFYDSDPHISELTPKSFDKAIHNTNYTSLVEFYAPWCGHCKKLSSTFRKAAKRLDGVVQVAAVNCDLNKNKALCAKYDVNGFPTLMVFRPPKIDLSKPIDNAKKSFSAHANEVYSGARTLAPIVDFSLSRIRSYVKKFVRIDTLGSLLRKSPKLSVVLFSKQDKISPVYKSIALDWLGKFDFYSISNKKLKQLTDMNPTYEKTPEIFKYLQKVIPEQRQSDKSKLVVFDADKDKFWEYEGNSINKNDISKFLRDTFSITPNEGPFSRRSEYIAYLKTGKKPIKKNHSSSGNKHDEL"}}}
{"compound": "C1OC1C1CO1", "note": "(stereo not shown) [1,2,3,4-diepoxybutane]", "values": [{"measurement": "cross-linking in cells, immunoblot", "setting": "Eug1", "result": "Each of these proteins also underwent protein cross-linking in cells treated with toxic concentrations"}, {"measurement": "cross-linking in cells, immunoblot", "setting": "Pdi1", "result": "Each of these proteins also underwent protein cross-linking in cells treated with toxic concentrations"}, {"measurement": "cross-linking in cells, immunoblot", "setting": "Mpd2", "result": "Each of these proteins also underwent protein cross-linking in cells treated with toxic concentrations"}, {"measurement": "cross-linking in cells, immunoblot", "setting": "Mpd1", "result": "Each of these proteins also underwent protein cross-linking in cells treated with toxic concentrations"}]}
